Measured values as given in ChEMBL document CHEMBL1122733, “Synthesis and beta-adrenergic blocking activity of new aliphatic and alicyclic oxime ethers” (J Med Chem, 1984).

Experiment: Compound was evaluated for pKa value by potentiometric titration
Type: physicochemical

In order of falling pKa:
1. CC1CC(OCC(O)CNC(C)(C)C)CC(C)(C)C1 (stereo unspecified)  9.94
2. CC(C)OCC(O)CNC(C)(C)C (stereo unspecified)  9.9
3. CC(OCC(O)CNC(C)(C)C)C1CC1 (stereo unspecified)  9.76
4. CC(C)COCC(O)CNC(C)(C)C (stereo unspecified)  9.73
5. CC(C)(C)NCC(O)COCC1CC1 (stereo unspecified)  9.73
6. CC(C)(C)COCC(O)CNC(C)(C)C (stereo unspecified)  9.68
7. C=CC(C)(C)OCC(O)CNC(C)(C)C (stereo unspecified)  9.67
8. CC(C)(C)NCC(O)CON=C(C1CC1)C1CC1 (stereo unspecified)  9.64
9. CC(C)(C)NCC(O)CO/N=C\C1CC1 (stereo unspecified)  9.64
10. CC(C)(C)NCC(O)COC(C1CC1)C1CC1 (stereo unspecified)  9.63
11. C/C(CC1CC1)=N/OCC(O)CNC(C)(C)C (stereo unspecified)  9.57
12. C/C(=N/OCC(O)CNC(C)(C)C)C1CC1 (stereo unspecified)  9.45
13. CC(C)=NOCC(O)CNC(C)(C)C (stereo unspecified)  9.42
14. CC1C/C(=N/OCC(O)CNC(C)(C)C)CC(C)(C)C1 (stereo unspecified)  9.41
15. C/C(=N/OCC(O)CNC(C)(C)C)C(C)C (stereo unspecified)  9.27
16. CC(NOCC(O)CNC(C)(C)C)C1CC1 (stereo unspecified)  9.1
